Measured values taken from patent EP0968998A1, “Cosmetic compositions, ceramide analogues with anti-elastase activity and process for their preparation” (ELF ATOCHEM S.A., priority 1998, dated 2000).

Biological target: T1, élastase de leucocytes humains (Homo sapiens, UniProt P08246)
T1 construct: purchased Elastin Products Co. SE 563; host or cells: human leukocytes, as the enzyme's name says
T1 sequence (P08246 30-267): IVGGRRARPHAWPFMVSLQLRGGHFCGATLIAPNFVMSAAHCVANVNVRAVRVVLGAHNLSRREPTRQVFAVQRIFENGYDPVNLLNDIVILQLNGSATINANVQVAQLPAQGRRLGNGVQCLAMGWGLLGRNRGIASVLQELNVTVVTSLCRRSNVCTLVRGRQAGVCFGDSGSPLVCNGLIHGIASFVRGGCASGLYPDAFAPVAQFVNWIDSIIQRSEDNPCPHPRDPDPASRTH
Assay: Anti-elastase activity: release of p-nitroaniline from N-succinyl-(Ala)3-p-nitroanilide, spectrophotometry at 410 nm
Assay type: biochemical
Conditions: pH 8, 37°C, pH8, 5 min preincubation, substrate 250 µM, read-out: % I (%); for inhibition at 250 µM: Concentration 250 µM; for inhibition at 500 µM: Concentration 500 µM
Source text: Les exemples qui suivent permettent d'illustrer l'invention. Dans ces exemples, on utilise les méthodes d'analyse suivantes : - Spectrographie infrarouge (IR) Les spectres sont réalisés au moyen d'un appareil PERKIN ELMER 1760 IRTF, en dispersion dans KBr à 1 %. Les valeurs sont exprimées en nombre d'onde par centimètre. - Résonance magnétique nucléaire (RMN) Les spectres sont réalisés au moyen d'un appareil BRUCKER DRX 500, à 500 MHz (^1H) et 125 MHz (^13C) dans le DMSO-d6. La calibration de l'appareil est effectuée au moyen de DMSO. Les déplacements chimiques sont exprimés en ppm. L'aspect des signaux est noté : singulet (s), doublet (d), triplet (t), quadruplet (q), multiplet (m), quintuplet (*5) et couplage AB (AB). - Mesure de l'activité anti-élastase L'activité anti-élastase est mesurée selon la méthode qui consiste à faire réagir l'élastase de leucocytes humains (référence SE 563; Elastin Products Co.; Owensville, MO, USA) avec le N-succinyl-(Ala)3-p-nitroanilide (réf. S4760; Sigma) et mesurer la libération de p-nitroaniline. On utilise le N-succinyl-(Ala)3-p-nitroanilide en solution dans le tétrahydrofurane et une solution d'élastase à 100 mg/ml dans un mélange de glycérol et de tampon acétate de sodium (50/50; v/v), pH5. L'activité de l'enzyme est mesurée à 37°C dans 100 mM de tampon Tris-HCI, pH8 contenant 0,01 % de Triton X-100 (volume/volume) et 0,02 % d'azide de sodium (poids/volume). Le céramide à tester, solubilisé dans le tétrahydrofurane (concentration en THF = 0,5 % en volume) est préincubé en présence de l'enzyme (0,05 mg/ml) dans le tampon pendant 5 minutes à 37°C. On ajoute le N-succinyl-(Ala)3-p-nitroanilide (concentration finale : 250 µM) et on mesure la libération de la p-nitroaniline dans une cuve en quartz par spectrophotométrie à 410 nm. La capacité inhibitrice du céramide est exprimée en pourcentage d'inhibition (% I) selon la relation : %I = (1 -(Vi)/(Vo))×100 [formula] dans laquelle Vi et Vo sont les vitesses d'apparition de la p-nitroaniline en présence et en absence d'inhibiteur respectivement. - Mesure de l'amélioration de la barrière cutanée a) mesure de la Perte Insensible en Eau (PIE) La mesure de la PIE permet de quantifier la très faible quantité d'eau qui diffuse passivement à travers le stratum corneum. Ce paramètre représente un très bon index de la fonction barrière du stratum corneum. Cette méthode est surtout utilisée pour contrôler l'efficacité de formules cosmétiques qui, contenant certains types de lipides sont capables de diminuer la PIE et, en conséquence, d'empêcher la déshydratation du stratum corneum. La sonde est laissée en contact de la peau pendant 2 minutes environ de façon à atteindre une position d'équilibre. PIE = D'(dP)/(dx)(gradient de pression de vapeur) [formula] Les valeurs sont exprimées en g/m^2/heure et permettent de calculer un delta de PIE = PIE (peau traitée) - PIE (peau témoin). L'appareil utilisé est un Evaporimètre EPI de Servomed. Les mesures sont effectuées sur deux groupes de 15 volontaires sains ayant une peau sèche, avant l'application du produit (t=0) et après l'application (t=0,5 heure, 1 heure, 3 heures et 6 heures) sur la face interne des deux avant-bras. L'analogue de céramide selon l'invention ou le céramide témoin est incorporé dans une crème ayant la composition suivante (en % en poids) : […]

Compound | inhibition at 250 µM | inhibition at 500 µM
CCCCCCCCCCCCCCCC(=O)NC(C)(CO)COC(=O)CCCCCCCCCCCCCCC (centres unmarked) [Exemple 2, 1-palmitoyl-2-méthyl-2-palmitoylamino-1,3-propanediol] | 8% | 57%
CCCCCCCCCCCCCCCC(=O)NC(CC)(CO)COC(=O)CCCCCCCCCCCCCCC (centres unmarked) [Exemple 3, 1-palmitoyl-2-éthyl-2-palmitoylamino-1,3-propanediol] | 33% | 43%
CCCCCCCCCCCCC/C=C/[C@@H](O)[C@H](CO)NC(=O)CCCCCCCCCCCCCCC [Référence (a), N-palmitoyl-D-érythro-1,3-dihydroxy-2-amino-4-trans octadécène, reference compound] | 81% | 100%
CCCCCCCCCCCCCCCCCC(=O)N[C@@H](CO)[C@H](O)[C@H](O)CCCCCCCCCCCCCC [Référence (b), N-stéaroyl-phytosphingosine, reference compound] | 44% | 50%
